Source: patent publication US11130741B2 (Bioimics AB, priority 2016, dated 2021)
Values after ≈ are worked out from the molar mass of the structure shown. Where two headings read alike, the source gives them in different places.

Legend:
[1] = tested on: Escherichia coli (ATCC25922); assay: MIC, broth microdilution (CLSI), Escherichia coli ATCC25922
[2] = tested on: Staphylococcus aureus (ATCC25923); assay: MIC, broth microdilution (CLSI), Staphylococcus aureus ATCC25923; conditions: ATCC25923, read-out: S. aureus ("Clinical") MIC
Experimental: Initial minimal inhibitory concentration (MIC) tests were made on two bacterial strains: • Escherichia coli (ATCC25922) • Staphylococcus aureus (ATCC25923).
Minimal Inhibitory Concentration (MIC)
MIC values were determined using the standard broth microdilution procedure based on the guidelines by the Clinical and Laboratory Standards Institute (CLSI). Briefly, the compounds were dissolved in DMSO to 10 mM. They were diluted in cation-adjusted Mueller-Hinton broth (CAMHB) to four times the highest concentration tested. A serial 2-fold dilution in CAMHB was done in microdilution plates. The inoculum of bacterial strain to be tested was prepared by making a suspension of colonies from an 18 to 24 hours old plate in CAMHB. The inoculum was diluted so that, after inoculation, each well contained approximately 5×10^5 CFU/mL. To a volume of 50 μl compound in CAMHB an equal volume of inoculum was added. The tray was sealed in a plastic bag and incubated at 35° C. for 16 to 20 hours. To aid in the detection of growth the dye resazurin was added to a final concentration 0.001% and incubated at room temperature for 1 h. Reduction of resazurin, and therefore bacterial growth, was seen as a change from blue to pink.

[3] = tested on: E. coli RNase P RNA, M1 RNA; assay: Initial inhibition of RNase P activity (normalised cleavage of pATSerUG at maximum compound concentration); assay type: biochemical; conditions: normalised cleavage (cleavage with compound / without compound)
[4] = tested on: E. coli RNase P RNA, M1 RNA; assay: Inhibition of bacterial RNase P activity, IC50 determination (cleavage of pATSerUG by M1 RNA); assay type: biochemical; conditions: NI = No inhibition
N. gonorrhoeae 612501 = assay: MIC, N. gonorrhoeae 612501; assay type: cell-based; conditions: Neisseria gonorrhoeae
[5] = tested on: Pseudomonas aeruginosa (ATCC27853); assay: microbe, parasite or virus in culture; assay type: cell-based; conditions: read-out: MIC P. aeruginosa ATCC 27853
H. influenzae ATCC 49247 = assay: MIC, H. influenzae ATCC 49247; assay type: cell-based; conditions: Haemophilus influenzae, ATCC49247
[6] = tested on: S. aureus MRSA ATCC 33591; assay: MIC, S. aureus MRSA ATCC 33591; assay type: cell-based; conditions: Staphylococcus aureus; read-out: MIC S. aureus MRSA ATCC 33591
S. pneumoniae ATCC 49619 = assay: MIC, S. pneumoniae ATCC 49619; assay type: cell-based; conditions: Streptococcus pneumoniae, ATCC49619
E. faecium ATCC 700221 = assay: MIC, E. faecium ATCC 700221; assay type: cell-based; conditions: Enterococcus faecium, ATCC700221; read-out: MIC E. faecium ATCC 700221
K. pneumoniae ATCC 43816 = assay: MIC, K. pneumoniae ATCC 43816; assay type: cell-based; conditions: Klebsiella pneumoniae, ATCC43816
S. aureus ATCC 29213 = assay: MIC, S. aureus ATCC 29213 + 50% HS; assay type: cell-based; conditions: Staphylococcus aureus, ATCC29213
[7] = tested on: Staphylococcus aureus subsp. aureus (ATCC29213); assay: MIC, broth microdilution (CLSI), Staphylococcus aureus subsp. aureus ATCC29213; assay type: cell-based
A. baumannii ATCC 17978 = assay: MIC, A. baumannii ATCC 17978; assay type: cell-based; conditions: Acinetobacter baumannii, ATCC17978
[8] = tested on: P. aeruginosa NTUH-974 (MDR); assay: MIC, P. aeruginosa NTUH-974 (MDR); assay type: cell-based
[9] = tested on: Enterococcus faecalis (ATCC29212); assay: MIC, broth microdilution (CLSI), Enterococcus faecalis ATCC29212; assay type: cell-based; conditions: read-out: MIC E. faecalis ATCC 29212
E. coli JW5503 = assay: MIC, E. coli JW5503; assay type: cell-based; conditions: Escherichia coli, JW5503, read-out: MIC E. coli JW5503
M. phlei ATCC 11758 = assay: MIC, M. phlei ATCC 11758; assay type: cell-based; conditions: Mycolicibacterium phlei, ATCC11758
M. fortuitum ATCC 110 = assay: MIC, M. fortuitum ATCC 110; assay type: cell-based; conditions: Mycolicibacterium fortuitum, ATCC110
H. pylori ATCC 43504 = assay: MIC, H. pylori ATCC 43504; assay type: cell-based; conditions: Helicobacter pylori, ATCC43504
[10] = tested on: S. aureus USA300 MRSA BAA 1717; assay: MIC, S. aureus USA300 MRSA BAA 1717; assay type: cell-based; conditions: Staphylococcus aureus
[11] = ATCC25922, read-out: E. coli MIC, Table 15, NI = No inhibition
[12] = ATCC29213, Table 16, read-out: MIC S. aureus ATCC 29213
[13] = ATCC25922, read-out: MIC E. coli ATCC 25922, Table 16
[14] = ATCC29213, Table 15, read-out: S. aureus ("wound") (MIC)
[15] = Pseudomonas aeruginosa; read-out: MIC P. aeruginosa NTUH-974 (MDR)

In the case of Nc1cc(C(F)(F)F)cc2c1Nc1ccccc1S2 [compound 2, 3-(trifluoromethyl)-10H-phenothiazin-1-amine], the MIC [1, 11] is reported as greater than 100 µg/mL, the MIC [2] is reported as 4 µg/mL (≈ 14.2 µM) and the “Normalised RNase P cleavage (fraction of control)” value ([3]; at 8 μM) is reported as 0.42. The “Normalised RNase P cleavage (fraction of control)” value ([3]; at 10 μM) was 0.84.
Molecule NCCC(=O)Nc1cc(C(F)(F)F)cc2c1Nc1ccccc1S2 [compound 30, 3-amino-N-(3-(trifluoromethyl)-10H-phenothiazin-1-yl)propanamide] has an MIC [1, 11] of 16 µg/mL (≈ 45.3 µM), an IC50 [4] greater than 100 µM and an MIC [2] of 8 µg/mL (≈ 22.6 µM). The “Normalised RNase P cleavage (fraction of control)” value ([3]; at 8 μM) was 0.49.
C=CC(=O)N(CCCN(C)C)c1cc(C(F)(F)F)cc2c1Nc1ccccc1S2 [compound 39, N-(3-(dimethylamino)propyl)-N-(3-(trifluoromethyl)-10H-phenothiazin-1-yl)acrylamide] showed an MIC [1, 11] greater than 100 µg/mL, an IC50 [4] of 76 µM and an MIC [2] of 27 µg/mL (≈ 64.1 µM). For the same molecule, the “Normalised RNase P cleavage (fraction of control)” value ([3]; at 8 μM) was 0.58.
For CN(C)CCCN1c2ccccc2Sc2cc(C(F)(F)F)cc(N)c21 [compound 42, 10-(3-(dimethylamino)propyl)-3-(trifluoromethyl)-10H-phenothiazin-1-amine], the MIC [1, 11] was greater than 100 µg/mL, the MIC [2] was 47 µg/mL (≈ 128 µM) and the “Normalised RNase P cleavage (fraction of control)” value ([3]; at 8 μM) was 1.02.
In the case of Nc1cc(C(F)(F)F)cc2c1N(CCCn1ccnc1)c1ccccc1S2 [compound 44, 10-(3-(1H-imidazol-1-yl)propyl)-3-(trifluoromethyl)-10H-phenothiazin-1-amine], the MIC (N. gonorrhoeae 612501) is reported as 2 µg/mL (≈ 5.12 µM), the MIC [1, 11] is reported as greater than 100 µg/mL and the MIC ([1]; ATCC25922, read-out: MIC E. coli ATCC 25922) is reported as greater than 128 µg/mL. It also gave an MIC [5] greater than 128 µg/mL, an MIC (H. influenzae ATCC 49247) of 16 µg/mL (≈ 41 µM) and an MIC [6] of 64 µg/mL (≈ 164 µM). For the same molecule, the MIC (S. pneumoniae ATCC 49619) was 16 µg/mL (≈ 41 µM), the MIC [2] was 2 µg/mL (≈ 5.12 µM) and the MIC (E. faecium ATCC 700221) was 8 µg/mL (≈ 20.5 µM). The MIC (K. pneumoniae ATCC 43816) was greater than 128 µg/mL, the MIC (S. aureus ATCC 29213) was greater than 128 µg/mL and the MIC [7, 12] was 4 µg/mL (≈ 10.2 µM). The “Normalised RNase P cleavage (fraction of control)” value ([3]; at 8 μM) was 1.06, the MIC (A. baumannii ATCC 17978) was greater than 128 µg/mL and the MIC ([8]; Pseudomonas aeruginosa, read-out: MIC P. aeruginosa NTUH-974 (MDR)) was greater than 128 µg/mL. For the same molecule, the MIC [9] was 16 µg/mL (≈ 41 µM) and the MIC (E. coli JW5503) was 8 µg/mL (≈ 20.5 µM).
C[C@@H](N)CC(=O)Nc1cc(C(F)(F)F)cc2c1Nc1ccccc1S2 [compound 67, (R)-3-amino-N-(3-(trifluoromethyl)-10H-phenothiazin-1-yl)butanamide] was tested, and the MIC [1, 11] was 13 µg/mL (≈ 35.4 µM), the IC50 [4] was greater than 100 µM and the MIC [2] was 13 µg/mL (≈ 35.4 µM). The “Normalised RNase P cleavage (fraction of control)” value ([3]; at 8 μM) was 0.19.
Molecule CC1(C)CCCN(c2ccc3c(c2)Sc2cc(C(F)(F)F)cc(NC4CCN(CCN)CC4)c2N3)C1.Cl.Cl [compound 305, N-(1-(2-aminoethyl)piperidin-4-yl)-7-(3,3-dimethyl-piperidin-1-yl)-3-(trifluoromethyl)-10H-phenothiazin-1-amine hydrochloride] has an MIC (N. gonorrhoeae 612501) of 1 µg/mL, an MIC [1, 11] of 4 µg/mL and an MIC [1, 13] of 4 µg/mL. For the same molecule, the MIC [5] was 16 µg/mL, the MIC (H. influenzae ATCC 49247) was 1 µg/mL and the IC50 [4] was 2.9 µM. For the same molecule, the MIC [6] was 1 µg/mL, the MIC (S. pneumoniae ATCC 49619) was 2 µg/mL and the MIC (E. faecium ATCC 700221) was 1 µg/mL. The MIC (K. pneumoniae ATCC 43816) was 4 µg/mL, the MIC (S. aureus ATCC 29213) was 32 µg/mL and the MIC [7, 14] was 2 µg/mL. The MIC [7, 12] was 1 µg/mL, the MIC (M. phlei ATCC 11758) was 2 µg/mL and the MIC (A. baumannii ATCC 17978) was 4 µg/mL. The MIC [8, 15] was 16 µg/mL, the MIC (M. fortuitum ATCC 110) was 4 µg/mL and the MIC (H. pylori ATCC 43504) was 16 µg/mL. For the same molecule, the MIC [9] was 1 µg/mL, the MIC [10] was 1 µg/mL and the MIC (E. coli JW5503) was 4 µg/mL.
For CCN(CC)c1ccc2c(c1)Sc1cc(C(F)(F)F)cc(NC3CCN(CCN)CC3)c1N2.Cl.Cl.Cl [compound 306, N1-(1-(2-aminoethyl)piperidin-4-yl)-N7,N7-diethyl-3-(trifluoromethyl)-10H-phenothiazine-1,7-diamine hydrochloride], the MIC (N. gonorrhoeae 612501) was 2 µg/mL, the MIC [1, 11] was 4 µg/mL and the MIC [1, 13] was 4 µg/mL. The MIC [5] was 32 µg/mL, the MIC (H. influenzae ATCC 49247) was 8 µg/mL and the IC50 [4] was 50 µM. The MIC [6] was 2 µg/mL, the MIC (S. pneumoniae ATCC 49619) was 4 µg/mL and the MIC (E. faecium ATCC 700221) was 2 µg/mL. The MIC (K. pneumoniae ATCC 43816) was 4 µg/mL, the MIC (S. aureus ATCC 29213) was 8 µg/mL and the MIC [7, 14] was 2 µg/mL. For the same molecule, the MIC [7, 12] was 2 µg/mL, the MIC (M. phlei ATCC 11758) was 8 µg/mL and the MIC (A. baumannii ATCC 17978) was 8 µg/mL. The MIC [8, 15] was 32 µg/mL, the MIC (M. fortuitum ATCC 110) was 4 µg/mL and the MIC (H. pylori ATCC 43504) was 32 µg/mL. For the same molecule, the MIC [9] was 4 µg/mL, the MIC [10] was 2 µg/mL and the MIC (E. coli JW5503) was 2 µg/mL.
CC1CCN(c2ccc3c(c2)Sc2cc(C(F)(F)F)cc(NC4CCN(CCN)CC4)c2N3)CC1.Cl.Cl [compound 307, N-(1-(2-aminoethyl)piperidin-4-yl)-7-(4-methyl-piperidin-1-yl)-3-(trifluoromethyl)-10H-phenothiazin-1-amine hydrochloride] was tested, and the MIC (N. gonorrhoeae 612501) was 1 µg/mL, the MIC [1, 11] was 4 µg/mL and the MIC [1, 13] was 4 µg/mL. The MIC [5] was 16 µg/mL, the MIC (H. influenzae ATCC 49247) was 2 µg/mL and the IC50 [4] was 16 µM. For the same molecule, the MIC [6] was 2 µg/mL, the MIC (S. pneumoniae ATCC 49619) was 8 µg/mL and the MIC (E. faecium ATCC 700221) was 2 µg/mL. The MIC (K. pneumoniae ATCC 43816) was 4 µg/mL, the MIC (S. aureus ATCC 29213) was 32 µg/mL and the MIC [7, 14] was 2 µg/mL. The MIC [7, 12] was 2 µg/mL, the MIC (M. phlei ATCC 11758) was 8 µg/mL and the MIC (A. baumannii ATCC 17978) was 8 µg/mL. For the same molecule, the MIC [8, 15] was 16 µg/mL, the MIC (M. fortuitum ATCC 110) was 4 µg/mL and the MIC (H. pylori ATCC 43504) was 16 µg/mL. The MIC [9] was 2 µg/mL, the MIC [10] was 2 µg/mL and the MIC (E. coli JW5503) was 2 µg/mL.
